Laboratory results reported in patent publication US8486459B2 (Cremer Oleo GmbH & Co. KG, priority 2011, dated 2013).

How the values were obtained:
[1] = test system: commensal microflora in the oral cavity; conditions: in vivo; cited from earlier work
[2] = test system: certain microorganisms; experiment: Comparative antimicrobial experiments, hydrogen peroxide alone vs enriched extract; assay type: cell-based; conditions: 0.05 wt % expressed as H2O2
[3] = test system: chloroquine-resistant strain K1 of Plasmodium falciparum; conditions: in vitro; cited from earlier work
[4] = test system: L5178Y leukemia lymphoma mouse cells; conditions: cited from earlier work
[5] = test system: Escherichia coli; conditions: in vitro; cited from earlier work
[6] = test system: Pseudomonas aeruginosa; conditions: in vitro; cited from earlier work
[7] = test system: Staphylococcus aureus; conditions: in vitro; cited from earlier work
[8] = test system: Bacillus subtilis; conditions: in vitro; cited from earlier work
[9] = test system: Micrococcus luteus; conditions: in vitro; cited from earlier work
[10] = test system: Candida albicans; conditions: in vitro; cited from earlier work

Structure (SMILES): [H]/N=C(\N/C(=N/[H])NCCCCCCNC(=N)NC(=N)Nc1ccc(Cl)cc1)Nc1ccc(Cl)cc1 [chlorhexidine]
- effect on the commensal microflora in the oral cavity [1]: extremely harmful effect

Structure (SMILES): OO [hydrogen peroxide]
- antimicrobial effect [2]: did not yield the antimicrobial properties
- effect on the commensal microflora in the oral cavity [1]: extremely harmful effect

Structure (SMILES): COc1cc(O)c(-c2c(C)cc(O)c3c2C(=O)c2ccc([C@H]4c5cccc(O)c5C(=O)c5c(O)cc(C)c(-c6c(O)cc(OC)c(C(C)=O)c6O)c54)c(O)c2C3=O)c(O)c1C(C)=O [joziknipholone A]
- effect against Plasmodium falciparum K1 [3]: exhibited an effect
- effect against L5178Y cells [4]: moderate effect

Structure (SMILES): COc1cc(O)c(-c2c(C)cc(O)c3c2C(=O)c2cccc(O)c2C3=O)c(O)c1C(C)=O [knipholone]
- antimicrobial effect [5]: ineffective
- antimicrobial effect [6]: ineffective
- antimicrobial effect [7]: ineffective
- antimicrobial effect [8]: ineffective
- antimicrobial effect [9]: ineffective
- antimicrobial effect [10]: ineffective
